Measurements from US20220125886A1 (The Board of Trustees of the Leland Stanford Junior …, priority 2019, published 2022).
Entries after “also recorded” stand apart in the source; their conditions may differ.

Key:
[1] = reported previously, used for the fit; cited from earlier work
[2] = Diffusion-ordered NMR spectroscopy (DOSY) of protein/CB[7]-PEG complexes; format: physicochemical; settings: for diffusion rate D: DOSY, protein 6 mg mL^−1, 200 mM phosphate buffer pH 7, D2O, zinc removed with EDTA; for hydrodynamic radius (Rh): approximated from D by the Stokes-Einstein relationship
Source text: A Varian Inova 600 MHz NMR instrument was used to acquire the data. Magnetic field strengths ranging from 2 to 57 G cm^−1. The DOSY time and gradient pulse were set at 132 ms (Δ) and 3 ms (δ) respectively. All NMR data were processed using MestReNova 11.0.4 software.

[3] = In vitro stability: aggregation under stressed conditions by change in transmittance at 540 nm; format: physicochemical
Protocol: These aggregates are large and scatter light, allowing the degree of aggregation to be evaluated by measuring the change in transmittance over time. […] Data shown in FIGS. 2A-2E are the average transmittance trace for n=3 samples per group.
The plate was immediately placed into an plate reader and incubated with continuous shaking 37° C. Absorbance readings were taken every 10 minutes at 540 nm for 100 h (BioTek SynergyH1 microplate reader).
Controls included: (i) NOVOLOG®, (ii) zinc-free NOVOLOG®, (iii) pramlintide (sodium acetate buffer at pH=4), (iv) pramlintide (PBS at pH=7), (v) NOVOLOG®+pramlintide (PBS at pH=7.4).

[4] = Circular dichroism of protein secondary structure when bound to CB[7]-PEG; format: physicochemical; settings: PBS pH 7.4, with CB[7]-PEG, with or without EDTA
Protocol: After mixing, samples were left to equilibrate for 15 minutes at room temperature. […] circular dichroism spectroscopy was performed at 20° C. with a J-815 CD Spectropolarimeter (Jasco Corporation) over a wavelength range of 185-250 nm using a 0.1 cm pathlength cell.

[5] = given for comparison; cited from earlier work
[6] = according to Webber et al., agitation; cited from earlier work

| Compound | diffusion rate D [2] | hydrodynamic radius (Rh) [2] | effect of CB[7]-PEG binding on protein (secondary) structure [4] | also measured |
| --- | --- | --- | --- | --- |
| CN(C)c1ccc2cc3ccc(N(C)C)cc3nc2c1 [AO, Acridine Orange] | – | – | – | CB[7]⋅AO equilibrium constant (Keq) [1]: 200000 M⁻¹ |
| CC[C@H](C)[C@H](NC(=O)[C@@H]1CCCN1C(=O)CNC(=O)[C@H](Cc1ccccc1)NC(=O)[C@H](CC(N)=O)NC(=O)[C@H](CC(N)=O)NC(=O)[C@H](CO)NC(=O)[C@H](CO)NC(=O)[C@H](Cc1c[nH]cn1)NC(=O)[C@@H](NC(=O)[C@H](CC(C)C)NC(=O)[C@H](Cc1ccccc1)NC(=O)[C@H](CC(N)=O)NC(=O)[C@H](C)NC(=O)[C@H](CC(C)C)NC(=O)[C@H](CCCNC(=N)N)NC(=O)[C@H](CCC(N)=O)NC(=O)[C@@H](NC(=O)[C@H](C)NC(=O)[C@@H]1CSSC[C@H](NC(=O)[C@@H](N)CCCCN)C(=O)N[C@@H](CC(N)=O)C(=O)N[C@@H]([C@@H](C)O)C(=O)N[C@@H](C)C(=O)N[C@@H]([C@@H](C)O)C(=O)N1)[C@@H](C)O)C(C)C)C(=O)N[C@@H](CC(C)C)C(=O)N1CCC[C@H]1C(=O)N1CCC[C@H]1C(=O)N[C@H](C(=O)N[C@@H](CC(N)=O)C(=O)N[C@H](C(=O)NCC(=O)N[C@@H](CO)C(=O)N[C@@H](CC(N)=O)C(=O)N[C@H](C(=O)N[C@@H](Cc1ccc(O)cc1)C(N)=O)[C@@H](C)O)C(C)C)[C@@H](C)O [pramlintide] | ~2×10^−10 m^2 s^−1 | 1.2 nm | did not affect protein structure; also recorded: no difference in protein secondary structure was observed | ratio of diffusion rates, pramlintide alone to insulin in a standard formulation ([2]; standard formulation): ~2.3; time stable ([3]; pH=4 sodium acetate buffer): over 100 hours; time to aggregation / time stable ([3]; pH=7.4 in PBS, aggregation measured as ~5% change in transmittance at 540 nm): 15 ± 4 h |
| insulin aspart | ~1.2×10^−10 m^2 s^−1 | ~2.2 nm | did not affect protein structure; also recorded: did not alter the secondary structure | – |
| insulin hexamer: hexameric association state of insulin in standard zinc formulations | – | – | – | hydrodynamic radius [5]: approximately 2.8 nm |
| native insulin: recombinant human insulin of Webber et al. | – | – | – | aggregation time (tA), 10% reduction in transmittance [6]: 13.6 ± 0.2 h |
